Results: patent publication US10245261B2, “Substituted indol-5-ol derivatives and their therapeutic applications” (NantBioScience, Inc., priority 2013, dated 2019)

Columns and labels:
Assay in all cases: KinaseProfiler kinase assay
Format in all cases: biochemical
Abl(h) = Abl(h) (Homo sapiens, UniProt P00519)
Aurora-A(h) = biological target: T1, Aurora-A(h) (Homo sapiens, UniProt O14965); settings: read-out: % Inhibition @1 μM Auroro-A
T1 sequence (O14965 1-403): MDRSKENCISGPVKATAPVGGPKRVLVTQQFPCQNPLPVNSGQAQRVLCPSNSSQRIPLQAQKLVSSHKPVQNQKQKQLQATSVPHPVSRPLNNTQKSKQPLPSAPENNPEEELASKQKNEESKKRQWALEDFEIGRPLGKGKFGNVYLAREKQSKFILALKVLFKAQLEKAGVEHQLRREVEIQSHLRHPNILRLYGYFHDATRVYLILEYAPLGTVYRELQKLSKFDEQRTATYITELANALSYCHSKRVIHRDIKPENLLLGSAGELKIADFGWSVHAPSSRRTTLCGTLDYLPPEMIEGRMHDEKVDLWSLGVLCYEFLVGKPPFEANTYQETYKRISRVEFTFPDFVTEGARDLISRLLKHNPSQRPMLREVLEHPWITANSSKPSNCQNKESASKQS
Description: (§1) This example tests the inhibitory properties of representative compounds of the invention in c-Src kinase, Aurora-A kinase, Flt3 kinase, Ret kinase and TrkA Kinase assays (see, Daniele Fancelli et al, J. Med. Chem., 2006, 49 (24), pp 7247-7251). The KinaseProfiler™ Service Assay Protocols (Millipore) was used to test the kinase inhibiting activity of novel compounds from this invention. To do this, the buffer composition was as: 20 mM MOPS, 1 mM EDTA, 0.01% Brij-35, 5% Glycerol, 0.1% β-mercaptoethanol, 1 mg/mL BSA. Test compounds were initially dissolved in DMSO at the desired concentration, then serially diluted to the kinase assay buffer. In a final reaction volume of 25 μL, Aurora-A(h) (5-10 mU) is incubated with 8 mM MOPS pH 7.0, 0.2 mM EDTA, 200 μM LRRASLG (Kemptide), 10 mM MgAcetate and [γ^33P-ATP]. The reaction was initiated by the addition of the MgATP mix. After incubation for 40 minute at room temperature, the reaction was stopped by addition of 5 μL of a 3% phosphoric acid solution. 10 μL of the reaction was then spotted onto a P30 filtermat and washed three times for 5 minutes in 50 mM phosphoric acid and once in methanol prior to drying and scintillation counting. Wells containing substrate but no kinase and wells containing a phosphopeptide control were used to set 0% and 100% phosphorylation value, respectively.
(§2) The Kinase Hotspot℠ kinase assay was also used to test the compounds for IC50 or % inhibitions (Reaction Biology Corp.). Inhibitory IC50 values were determined by titration of compound at the optimal kinase concentration (Kinase EC50).

Flt3(h) = biological target: T2, Flt3(h) (Homo sapiens, UniProt P36888)
T2 sequence (P36888 27-993): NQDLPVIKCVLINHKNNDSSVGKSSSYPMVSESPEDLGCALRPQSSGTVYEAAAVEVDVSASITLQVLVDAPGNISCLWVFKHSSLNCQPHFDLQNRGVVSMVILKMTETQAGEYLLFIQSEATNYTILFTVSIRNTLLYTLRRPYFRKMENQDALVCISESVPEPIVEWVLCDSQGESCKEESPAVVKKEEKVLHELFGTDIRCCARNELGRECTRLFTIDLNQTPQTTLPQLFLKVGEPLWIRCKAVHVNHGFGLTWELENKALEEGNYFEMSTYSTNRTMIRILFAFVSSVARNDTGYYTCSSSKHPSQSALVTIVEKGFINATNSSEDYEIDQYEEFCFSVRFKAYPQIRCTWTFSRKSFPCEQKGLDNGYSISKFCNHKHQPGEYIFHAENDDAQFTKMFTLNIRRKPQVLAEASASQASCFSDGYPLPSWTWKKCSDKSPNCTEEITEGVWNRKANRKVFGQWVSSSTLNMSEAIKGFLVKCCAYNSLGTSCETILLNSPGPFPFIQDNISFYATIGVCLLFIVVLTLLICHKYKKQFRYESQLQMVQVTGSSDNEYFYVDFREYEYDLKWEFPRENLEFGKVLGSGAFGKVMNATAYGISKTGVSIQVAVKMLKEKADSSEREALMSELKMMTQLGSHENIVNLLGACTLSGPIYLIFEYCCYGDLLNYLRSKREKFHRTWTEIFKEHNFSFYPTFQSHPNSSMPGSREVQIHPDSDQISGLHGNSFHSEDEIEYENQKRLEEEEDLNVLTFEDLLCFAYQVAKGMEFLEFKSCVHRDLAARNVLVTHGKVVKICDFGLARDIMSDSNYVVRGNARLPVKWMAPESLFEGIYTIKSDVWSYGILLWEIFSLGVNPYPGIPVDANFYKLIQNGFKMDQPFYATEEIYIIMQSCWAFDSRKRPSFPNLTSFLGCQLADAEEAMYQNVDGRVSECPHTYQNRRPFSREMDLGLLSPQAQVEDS
Description: as §1, §2

Ret(h) = Ret(h) (Homo sapiens, UniProt P07949)
Chain of Ret(h) (P07949 29-1114): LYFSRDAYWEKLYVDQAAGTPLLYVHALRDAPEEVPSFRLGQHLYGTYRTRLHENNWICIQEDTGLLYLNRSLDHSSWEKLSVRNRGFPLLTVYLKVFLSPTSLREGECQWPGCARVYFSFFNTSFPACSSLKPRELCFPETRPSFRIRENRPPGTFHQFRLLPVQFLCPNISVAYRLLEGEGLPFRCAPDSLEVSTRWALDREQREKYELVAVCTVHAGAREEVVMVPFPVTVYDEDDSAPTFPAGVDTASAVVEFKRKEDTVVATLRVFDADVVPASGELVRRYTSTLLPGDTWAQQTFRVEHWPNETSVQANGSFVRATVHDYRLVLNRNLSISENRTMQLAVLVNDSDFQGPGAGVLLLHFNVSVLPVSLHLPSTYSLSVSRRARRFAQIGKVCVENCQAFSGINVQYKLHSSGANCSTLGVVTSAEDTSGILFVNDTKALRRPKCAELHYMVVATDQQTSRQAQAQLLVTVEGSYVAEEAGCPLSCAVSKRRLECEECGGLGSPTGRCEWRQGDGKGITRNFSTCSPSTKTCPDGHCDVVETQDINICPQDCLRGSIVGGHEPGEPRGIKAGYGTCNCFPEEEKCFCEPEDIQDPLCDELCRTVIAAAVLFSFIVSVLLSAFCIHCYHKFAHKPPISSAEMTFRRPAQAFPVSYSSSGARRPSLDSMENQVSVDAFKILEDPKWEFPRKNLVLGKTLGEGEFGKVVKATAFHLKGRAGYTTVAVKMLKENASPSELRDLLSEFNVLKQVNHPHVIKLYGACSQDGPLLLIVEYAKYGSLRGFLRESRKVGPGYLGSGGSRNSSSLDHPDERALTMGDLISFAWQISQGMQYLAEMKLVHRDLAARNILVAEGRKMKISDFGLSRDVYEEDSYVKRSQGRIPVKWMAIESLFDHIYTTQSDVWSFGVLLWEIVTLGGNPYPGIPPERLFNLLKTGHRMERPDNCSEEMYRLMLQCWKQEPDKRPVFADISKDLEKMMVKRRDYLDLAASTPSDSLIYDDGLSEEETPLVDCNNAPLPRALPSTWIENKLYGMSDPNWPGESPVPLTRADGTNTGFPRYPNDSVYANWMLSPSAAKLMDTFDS
Description: as §1, §2

cSRC(h) = cSRC(h) (Homo sapiens, UniProt P12931)
Chain of cSRC(h) (P12931 whole entry): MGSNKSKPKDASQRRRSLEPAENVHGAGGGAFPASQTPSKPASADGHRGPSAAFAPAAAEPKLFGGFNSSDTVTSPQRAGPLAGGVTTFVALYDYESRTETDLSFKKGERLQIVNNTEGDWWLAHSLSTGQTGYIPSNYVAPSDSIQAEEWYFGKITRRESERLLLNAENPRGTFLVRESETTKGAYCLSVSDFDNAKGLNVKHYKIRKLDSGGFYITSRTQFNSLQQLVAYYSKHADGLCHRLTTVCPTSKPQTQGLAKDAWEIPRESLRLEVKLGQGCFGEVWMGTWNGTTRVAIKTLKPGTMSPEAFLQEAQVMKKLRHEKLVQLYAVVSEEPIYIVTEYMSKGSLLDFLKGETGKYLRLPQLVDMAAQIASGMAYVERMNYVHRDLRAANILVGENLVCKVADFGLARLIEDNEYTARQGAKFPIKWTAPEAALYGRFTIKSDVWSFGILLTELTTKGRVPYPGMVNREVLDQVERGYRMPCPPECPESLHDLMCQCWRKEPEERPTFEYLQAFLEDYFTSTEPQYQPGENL
Description: as §1, §2

KDR(h) = KDR(h) (Homo sapiens, UniProt P35968)
Chain of KDR(h) (P35968 20-1356): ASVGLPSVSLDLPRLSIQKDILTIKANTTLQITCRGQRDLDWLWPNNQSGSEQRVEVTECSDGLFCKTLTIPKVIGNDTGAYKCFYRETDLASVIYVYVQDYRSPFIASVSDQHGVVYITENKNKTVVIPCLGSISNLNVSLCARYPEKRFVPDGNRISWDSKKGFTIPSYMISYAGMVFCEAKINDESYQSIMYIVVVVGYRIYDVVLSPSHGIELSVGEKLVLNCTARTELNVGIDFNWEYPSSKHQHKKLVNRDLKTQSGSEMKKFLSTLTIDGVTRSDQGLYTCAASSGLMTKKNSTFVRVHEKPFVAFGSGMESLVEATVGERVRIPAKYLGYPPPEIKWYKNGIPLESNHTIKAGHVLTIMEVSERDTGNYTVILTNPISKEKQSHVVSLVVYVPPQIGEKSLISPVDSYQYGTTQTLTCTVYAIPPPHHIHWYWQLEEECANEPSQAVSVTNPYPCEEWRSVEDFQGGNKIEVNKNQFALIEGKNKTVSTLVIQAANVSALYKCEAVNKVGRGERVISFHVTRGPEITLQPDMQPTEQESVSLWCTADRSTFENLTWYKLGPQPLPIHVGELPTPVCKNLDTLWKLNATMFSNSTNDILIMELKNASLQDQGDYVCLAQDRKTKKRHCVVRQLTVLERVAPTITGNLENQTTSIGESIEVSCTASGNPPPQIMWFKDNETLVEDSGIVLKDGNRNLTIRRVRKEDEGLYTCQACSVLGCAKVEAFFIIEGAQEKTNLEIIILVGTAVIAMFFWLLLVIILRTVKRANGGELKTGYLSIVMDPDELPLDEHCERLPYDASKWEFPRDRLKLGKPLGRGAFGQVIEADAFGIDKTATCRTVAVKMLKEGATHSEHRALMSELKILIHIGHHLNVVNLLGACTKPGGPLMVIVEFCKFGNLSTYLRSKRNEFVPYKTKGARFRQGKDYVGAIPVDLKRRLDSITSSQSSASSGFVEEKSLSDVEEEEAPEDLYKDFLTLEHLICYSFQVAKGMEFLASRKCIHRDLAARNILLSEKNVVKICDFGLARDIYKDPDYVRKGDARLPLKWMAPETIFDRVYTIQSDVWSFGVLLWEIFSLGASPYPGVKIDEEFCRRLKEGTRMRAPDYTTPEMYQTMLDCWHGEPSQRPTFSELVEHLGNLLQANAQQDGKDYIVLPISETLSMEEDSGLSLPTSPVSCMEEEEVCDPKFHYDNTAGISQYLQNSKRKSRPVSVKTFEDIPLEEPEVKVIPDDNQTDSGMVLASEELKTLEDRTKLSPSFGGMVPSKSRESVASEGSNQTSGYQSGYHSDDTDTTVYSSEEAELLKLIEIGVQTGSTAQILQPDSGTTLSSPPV

Chain of Abl(h) (P00519 whole entry): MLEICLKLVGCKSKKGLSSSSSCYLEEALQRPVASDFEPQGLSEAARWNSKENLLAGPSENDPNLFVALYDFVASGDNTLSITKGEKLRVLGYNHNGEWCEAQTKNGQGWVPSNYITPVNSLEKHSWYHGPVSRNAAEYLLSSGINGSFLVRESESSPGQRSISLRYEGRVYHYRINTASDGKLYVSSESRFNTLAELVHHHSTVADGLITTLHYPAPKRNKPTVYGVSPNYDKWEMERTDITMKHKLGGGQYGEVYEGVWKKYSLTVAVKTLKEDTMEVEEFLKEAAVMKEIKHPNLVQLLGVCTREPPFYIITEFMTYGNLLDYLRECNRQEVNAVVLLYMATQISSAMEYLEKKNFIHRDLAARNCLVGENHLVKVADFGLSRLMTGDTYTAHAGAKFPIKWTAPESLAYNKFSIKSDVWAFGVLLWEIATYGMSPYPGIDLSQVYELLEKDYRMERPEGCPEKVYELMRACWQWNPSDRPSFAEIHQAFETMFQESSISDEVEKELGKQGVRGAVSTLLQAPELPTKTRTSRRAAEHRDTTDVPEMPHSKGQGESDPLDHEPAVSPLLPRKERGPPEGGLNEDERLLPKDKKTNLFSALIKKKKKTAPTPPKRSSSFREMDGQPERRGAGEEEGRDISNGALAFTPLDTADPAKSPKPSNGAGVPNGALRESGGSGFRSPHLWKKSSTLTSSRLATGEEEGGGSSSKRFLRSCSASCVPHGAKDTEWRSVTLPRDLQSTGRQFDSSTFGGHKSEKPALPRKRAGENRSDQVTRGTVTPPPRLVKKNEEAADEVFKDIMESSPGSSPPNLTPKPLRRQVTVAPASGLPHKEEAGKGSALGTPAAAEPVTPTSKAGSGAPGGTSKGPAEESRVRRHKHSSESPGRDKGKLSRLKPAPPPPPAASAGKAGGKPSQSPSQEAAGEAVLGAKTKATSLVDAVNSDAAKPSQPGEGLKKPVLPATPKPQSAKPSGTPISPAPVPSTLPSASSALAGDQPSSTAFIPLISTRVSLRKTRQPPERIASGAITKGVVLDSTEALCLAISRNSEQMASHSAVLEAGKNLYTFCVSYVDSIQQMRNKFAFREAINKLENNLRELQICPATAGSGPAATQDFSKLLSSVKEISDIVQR

inhibition at 1 µM (Abl(h)) [%] | inhibition at 1 µM (Aurora-A(h)) [%] | inhibition at 1 µM (Flt3(h)) [%] | inhibition at 1 µM (Ret(h)) [%] | inhibition at 1 µM (cSRC(h)) [%] | inhibition at 1 µM (KDR(h)) [%] | SMILES
113 | 97 | 99 | 101 | 96 | 91 | CCN1CCN(c2cc(Nc3cc(C)[nH]n3)nc(Oc3cc(F)c4[nH]c(C)cc4c3F)n2)CC1 [Compound 103]
111 | 96 | 100 | 102 | 99 | 95 | C/C=C/c1cc(Nc2cc(N3CCS(=O)(=O)CC3)nc(Oc3ccc4[nH]c(C)cc4c3F)n2)n[nH]1 [Compound 57]
112 | 90 | 99 | 102 | 101 | 96 | C/C=C/c1cc(Nc2cc(N3CCC(OC)CC3)nc(Oc3ccc4[nH]c(C)cc4c3F)n2)n[nH]1 [Compound 58]
112 | 94 | 99 | 102 | 100 | 96 | C/C=C/c1cc(Nc2cc(N3CCC(O)CC3)nc(Oc3ccc4[nH]c(C)cc4c3F)n2)n[nH]1 [Compound 59]
108 | 101 | 100 | 101 | 100 | 92 | Cc1cc2c(F)c(Oc3nc(Nc4cc(C5CC5)[nH]n4)cc(N4CCC(F)CC4)n3)ccc2[nH]1 [Compound 22]
111 | 97 | 99 | 102 | 101 | 95 | C/C=C/c1cc(Nc2cc(N3CCC(OC)C3)nc(Oc3ccc4[nH]c(C)cc4c3F)n2)n[nH]1 (stereo not drawn) [Compound 60]
103 | 101 | 98 | 101 | 100 | 92 | COC1CCN(c2cc(Nc3cc(C4CC4)[nH]n3)nc(Oc3ccc4[nH]c(C)cc4c3F)n2)C1 (stereo not drawn) [Compound 16]
108 | 101 | 100 | 101 | 96 | 89 | COCCN1CCN(c2cc(Nc3cc(C4CC4)[nH]n3)nc(Oc3ccc4[nH]c(C)cc4c3F)n2)CC1 [Compound 28]
110 | 98 | 98 | 101 | 97 | 95 | Cc1cc2c(F)c(Oc3nc(Nc4cc(C5CC5)[nH]n4)cc(N4CCOC(CN)C4)n3)ccc2[nH]1 (stereo not drawn) [Compound 39]
108 | 101 | 100 | 101 | 100 | 93 | Cc1cc2c(F)c(Oc3nc(Nc4cc(C5CC5)[nH]n4)cc(N4CCN(c5ccccn5)CC4)n3)ccc2[nH]1 [Compound 25]
109 | 101 | 100 | 101 | 100 | 93 | Cc1cc2c(F)c(Oc3nc(Nc4cc(C5CC5)[nH]n4)cc(N4CCN(c5cccnc5)CC4)n3)ccc2[nH]1 [Compound 26]
112 | 99 | 100 | 83 | 95 | 95 | C/C=C/c1cc(Nc2cc(N3CCN(C)CC3)nc(Oc3cc(F)c4[nH]c(C)cc4c3F)n2)n[nH]1 [Compound 87]
